Read-outs that look alike come from different tables or passages of the source.
Key:
human GLP-1R [1] = biological target: human GLP-1R (Homo sapiens (Human), UniProt P43220, L260F); experiment: CHO GLP-1R Clone C6 - Assay 2 (HTRF cAMP agonist assay, low receptor density); details: for Assay 2 Emax (%) / Emax: arithmetic mean, relative to saturating GLP-1 (1 μM); for Emax: read-out: Assay 2 Emax (%), CHO GLP-1R Clone C6 (low receptor density)
human GLP-1R [2] = biological target: human GLP-1R (Homo sapiens, UniProt P43220, G168S); experiment: CHO GLP-1R Clone H6 - Assay 1 (HTRF cAMP agonist assay); type: cell-based; details: for EC50: CHO GLP-1R Clone H6, cAMP HTRF, geometric mean
Procedure: GLP-1R-mediated agonist activity was determined with a cell-based functional assay utilizing an HTRF (Homogeneous Time-Resolved Fluorescence) cAMP detection kit (cAMP HI Range Assay Kit; CisBio cat #62AM6PEJ) that measures cAMP levels in the cell. The method is a competitive immunoassay between native cAMP produced by the cells and exogenous cAMP labeled with the dye d2. The tracer binding is visualized by a mAb anti-cAMP labeled with Cryptate. The specific signal (i.e. energy transfer) is inversely proportional to the concentration of cAMP in either standard or experimental sample.
The human GLP-1R coding sequence (NCBI Reference Sequence NP_002053.3, including naturally-occurring variant Gly168Ser) was subcloned into pcDNA3 (Invitrogen) and a cell line stably expressing the receptor was isolated (designated Clone H6).
Cells were removed from cryopreservation, re-suspended in 40 mL of Dulbecco's Phosphate Buffered Saline (DPBS—Lonza Cat #17-512Q) and centrifuged at 800×g for 5 minutes at 22° C. The cell pellet was then re-suspended in 10 mL of growth medium [DMEM/F12 1:1 Mixture with HEPES, L-Gln, 500 mL (DMEM/F12 Lonza Cat #12-719F), 10% heat inactivated fetal bovine serum (Gibco Cat #16140-071), 5 mL of 100× Pen-Strep (Gibco Cat #15140-122), 5 mL of 100×L-Glutamine (Gibco Cat #25030-081) and 500 μg/mL Geneticin (G418) (Invitrogen #10131035)]. A 1 mL sample of the cell suspension in growth media was counted on a Becton Dickinson ViCell to determine cell viability and cell count per mL. The remaining cell suspension was then adjusted with growth media to deliver 2000 viable cells per well using a Matrix Combi Multidrop reagent dispenser, and the cells were dispensed into a white 384 well tissue culture treated assay plate (Corning 3570). The assay plate was then incubated for 48 hours at 37° C. in a humidified environment in 5% carbon dioxide.
Varying concentrations of each compound to be tested (in DMSO) were diluted in assay buffer (HBSS with Calcium/Magnesium (Lonza/BioWhittaker cat #10-527F)/0.1% BSA (Sigma Aldrich cat # A7409-1L)/20 mM HEPES (Lonza/BioWhittaker cat #17-737E) containing 100 μM 3-isobutyl-1-methylxanthin (IBMX; Sigma cat #15879). The final DMSO concentration is 1%.
After 48 hours, the growth media was removed from the assay plate wells, and the cells were treated with 20 μL of the serially diluted compound in assay buffer for 30 minutes at 37° C. in a humidified environment in 5% carbon dioxide. Following the 30 minute incubation, 10 μL of labeled d2 cAMP and 10 μL of anti-cAMP antibody (both diluted 1:20 in cell lysis buffer; as described in the manufacturer's assay protocol) were added to each well of the assay plate. The plates were then incubated at room temperature and after 60 minutes, changes in the HTRF signal were read with an Envision 2104 multi-label plate reader using excitation of 330 nm and emissions of 615 and 665 nm. Raw data were converted to nM cAMP by interpolation from a cAMP standard curve (as described in the manufacturer's assay protocol) and the percent effect was determined relative to a saturating concentration of the full agonist GLP-17-36 (1 μM) included on each plate. EC50 determinations were made from agonist dose-response curves analyzed with a curve fitting program using a 4-parameter logistic dose response equation.

[3] = CHO GLP-1R Clone C6 (low receptor density)
[4] = read-out: Assay 2 EC50, CHO GLP-1R Clone C6 (low receptor density), cAMP HTRF, geometric mean
[5] = Assay 2 EC50 (nM), CHO GLP-1R Clone C6 (low receptor density), cAMP HTRF, geometric mean
[6] = CHO GLP-1R Clone H6, arithmetic mean, relative to saturating GLP-1 (1 μM)
[7] = EC50 in Assay 2, CHO GLP-1R Clone C6, cAMP, geometric mean of replicates

Chain of human GLP-1R (Homo sapiens (Human), UniProt P43220, L260F) (P43220 24-463 L260F): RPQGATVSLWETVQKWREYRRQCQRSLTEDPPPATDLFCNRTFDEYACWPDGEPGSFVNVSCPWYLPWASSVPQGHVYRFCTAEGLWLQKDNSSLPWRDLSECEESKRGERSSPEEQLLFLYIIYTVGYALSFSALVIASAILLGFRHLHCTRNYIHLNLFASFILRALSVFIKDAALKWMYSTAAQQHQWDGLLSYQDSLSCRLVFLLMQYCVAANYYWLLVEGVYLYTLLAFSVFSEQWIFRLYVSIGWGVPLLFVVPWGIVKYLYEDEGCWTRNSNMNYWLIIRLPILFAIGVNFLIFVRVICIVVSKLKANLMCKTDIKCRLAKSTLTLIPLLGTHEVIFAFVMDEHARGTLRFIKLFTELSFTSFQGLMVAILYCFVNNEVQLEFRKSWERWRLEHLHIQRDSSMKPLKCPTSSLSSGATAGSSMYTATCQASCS
Chain of human GLP-1R (Homo sapiens, UniProt P43220, G168S) (P43220 24-463 G168S limits assumed): as the sequence (P43220 24-463 L260F) above, with G145S, F237L counted along it

Row | Structure (SMILES) | EC50 (human GLP-1R [1]; [4]) [nM] | EC50 (human GLP-1R [2]) [nM] | EC50 (human GLP-1R [1]; [5]) [nM] | Emax (human GLP-1R [1]) [%] | Emax (human GLP-1R [2]; [6]) [%] | Assay 1 Emax (%) (human GLP-1R [2]; [6]) | EC50 (human GLP-1R [1]; read-out: EC50 in Assay 2, CHO GLP-1R Clone C6, cAMP, geometric mean of replicates) [nM] | EC50 (human GLP-1R [1]; [7]) [nM] | Assay 2 Emax (%) (human GLP-1R [1]; [3])
1 | CCn1cncc1Cn1c(CN2CCC(c3cccc4c3O[C@](C)(c3ccc(Cl)cc3F)O4)CC2)nc2ccc(C(=O)O)cc21 (single isomer, unassigned) [Example 18, Ammonium 2-({4-[2-(4-chloro-2-fluorophenyl)-2-methyl-1,3-benzodioxol-4-yl]piperidin-1-yl}methyl)-1-[(I-ethyl-1H-imidazol-5-yl)methyl]-1H-benzimidazole-6-carboxylate] | 1000 | 210 | – | – | – | – | – | – | 87
2 | COCCn1c(CN2CCC(c3cccc4c3OC(C)(c3ccc(Cl)cc3F)O4)CC2)nc2ncc(C(=O)O)cc21 (stereo not drawn) [Example 3, 2-({4-[2-(4-Chloro-2-fluorophenyl)-2-methyl-1,3-benzodioxol-4-yl]piperidin-1-yl}methyl)-1-(2-methoxyethyl)-1H-imidazo[4,5-b]pyridine-6-Carboxylic Acid] | 45 | 1.3 | – | 120 | 94 | – | – | – | –
3 | O=C(O)c1ccc2nc(CN3CCC(c4cccc5c4O[C@H](c4ccc(Cl)cc4F)O5)CC3)n(C[C@@H]3CCO3)c2c1 [Example 4, Ammonium 2-({4-[(2R)-2-(4-chloro-2-fluorophenyl)-1,3-benzodioxol-4-yl]piperidin-1-yl}methyl)-1-[(2S)-oxetan-2-ylmethyl]-1H-benzimidazole-6-carboxylate] | > 20000 | 1600 | – | – | 87 | – | > 20000 | – | –
4 | O=C(O)c1ccc2nc(CN3CCC(c4cccc5c4O[C@@H](c4ccc(Cl)cc4F)O5)CC3)n(C[C@@H]3CCO3)c2c1 [Example 5, Ammonium 2-({4-[(2S)-2-(4-chloro-2-fluorophenyl)-1,3-benzodioxol-4-yl]piperidin-1-yl}methyl)-1-[(2S)-oxetan-2-ylmethyl]-1H-benzimidazole-6-carboxylate] | 23 | 1.3 | – | 97 | 89 | – | – | 20 | –
5 | C[C@@]1(c2ccc(Cl)cc2F)Oc2cccc(C3CCN(Cc4nc5ccc(C(=O)O)cc5n4C[C@@H]4CCO4)CC3)c2O1 [Example 6, Ammonium 2-({4-[(2R)-2-(4-chloro-2-fluorophenyl)-2-methyl-1,3-benzodioxol-4-yl]piperidin-1-yl}methyl)-1-[(2S)-oxetan-2-ylmethyl]-1H-benzimidazole-6-carboxylate] | – | 140 | 2400 | 89 | 89 | – | – | 2400 | –
6 | C[C@]1(c2ccc(Cl)cc2F)Oc2cccc(C3CCN(Cc4nc5ccc(C(=O)O)cc5n4C[C@@H]4CCO4)CC3)c2O1 [Example 7, Ammonium 2-({4-[(2S)-2-(4-chloro-2-fluorophenyl)-2-methyl-1,3-benzodioxol-4-yl]piperidin-1-yl}methyl)-1-[(2S)-oxetan-2-ylmethyl]-1H-benzimidazole-6-carboxylate] | – | 0.26 | 3.1 | 93 | 98 | – | – | 2.9 | –
7 | CN(C)CCn1c(CN2CCC(c3cccc4c3OC(C)(c3ccc(Cl)cc3F)O4)CC2)nc2ccc(C(=O)O)cc21 (stereo not drawn) [Example 12, 2-({4-[2-(4-Chloro-2-fluorophenyl)-2-methyl-1,3-benzodioxol-4-yl]piperidin-1-yl}methyl)-1-[2-(dimethylamino)ethyl]-1H-benzimidazole-6-carboxylic Acid] | – | 29 | 690 | 92 | 83 | – | – | – | –
8 | CC1(c2ccc(Cl)cc2F)Oc2cccc(C3CCN(Cc4nc5ccc(C(=O)O)nc5n4Cc4ncco4)CC3)c2O1 (stereo not drawn) [Example 13, 2-({4-[2-(4-Chloro-2-fluorophenyl)-2-methyl-1,3-benzodioxol-4-yl]piperidin-1-yl}methyl)-3-(1,3-oxazol-2-ylmethyl)-3H-imidazo[4,5-b]pyridine-5-carboxylic Acid] | – | 4.5 | 38 | 110 | 95 | – | – | – | –
9 | Cn1c(CN2CCC(c3cccc4c3O[C@@](C)(c3ccc(Cl)cc3F)O4)CC2)nc2ccc(C(=O)O)cc21 [Example 14, 2-({4-[(2S)-2-(4-Chloro-2-fluorophenyl)-2-methyl-1,3-benzodioxol-4-yl]piperidin-1-yl}methyl)-1-methyl-1H-benzimidazole-6-carboxylic Acid] | 79 | 7 | – | 85 | 95 | – | – | – | –
10 | COCCn1c(CN2CCN(c3cccc4c3OC(C)(c3ccc(Cl)cc3F)O4)CC2)nc2ccc(C(=O)O)cc21 (stereo not drawn) [Example 19, 2-({4-[2-(4-chloro-2-fluorophenyl)-2-methyl-1,3-benzodioxol-4-yl]piperazin-1-yl}methyl)-1-(2-methoxyethyl)-1H-benzimidazole-6-carboxylic acid] | 25 | 1.2 | – | 100 | 87 | – | – | – | –

Second part, led by results:

Row | EC50 (human GLP-1R [1]; [4]) [nM] | EC50 (human GLP-1R [2]) [nM] | EC50 (human GLP-1R [1]; [5]) [nM] | Emax (human GLP-1R [1]) [%] | Emax (human GLP-1R [2]; [6]) [%] | Assay 1 Emax (%) (human GLP-1R [2]; [6]) | EC50 (human GLP-1R [1]; read-out: EC50 in Assay 2, CHO GLP-1R Clone C6, cAMP, geometric mean of replicates) [nM] | EC50 (human GLP-1R [1]; [7]) [nM] | Structure (SMILES) | Assay 2 Emax (%) (human GLP-1R [1]; [3])
11 | – | > 20000 | > 20000 | – | – | – | – | – | COCCn1c(C2CC23CCN(c2cccc4c2OC(C)(c2ccc(Cl)cc2F)O4)CC3)nc2ccc(C(=O)O)cc21 (single isomer, unassigned) [Example 25, 2-{6-[2-(4-chloro-2-fluorophenyl)-2-methyl-1,3-benzodioxol-4-yl]-6-azaspiro[2.5]oct-1-yl}-1-(2-methoxyethyl)-1H-benzimidazole-6-carboxylic acid] | –
12 | – | > 20000 | > 20000 | – | – | – | – | – | COCCn1c(C2CC23CCN(c2cccc4c2OC(C)(c2ccc(Cl)cc2F)O4)CC3)nc2ccc(C(=O)O)cc21 (single isomer, unassigned) [Example 26, 2-{6-[2-(4-chloro-2-fluorophenyl)-2-methyl-1,3-benzodioxol-4-yl]-6-azaspiro[2.5]oct-1-yl}-1-(2-methoxyethyl)-1H-benzimidazole-6-carboxylic acid] | –
13 | – | 1.1 | 11 | 93 | 85 | – | – | – | CC1(c2ccc(Cl)cc2F)Oc2c(F)ccc(C3CCN(Cc4nc5ccc(C(=O)O)cc5n4C[C@@H]4CCO4)CC3)c2O1 (single isomer, unassigned) [Example 96] | –
14 | – | 14 | 140 | – | – | 86 | – | – | CC1(c2ccc(Cl)cc2F)Oc2c(F)ccc(C3CCN(Cc4nc5ccc(C(=O)O)cc5n4C[C@@H]4CCO4)CC3)c2O1 (single isomer, unassigned) [Example 97] | 93
15 | 270 | 17 | – | 100 | 85 | – | – | – | COCCn1c(CN2CCC(c3cccc4c3OC(c3ccc(Cl)cc3F)O4)CC2)nc2ccc(C(=O)O)cc21 (stereo not drawn) [Example 20, 2-({4-[2-(4-chloro-2-fluorophenyl)-1,3-benzodioxol-4-yl]piperidin-1-yl}methyl)-1-(2-methoxyethyl)-1H-benzimidazole-6-carboxylic acid] | –
16 | – | > 20000 | > 20000 | – | – | – | – | – | COCCn1c(CN2CCC(c3cccc4c3OC(c3ccc(Cl)cc3F)O4)CC2)nc2ccc(C(=O)O)cc21 (stereo not drawn) [Example 21, 2-({4-[2-(4-chloro-2-fluorophenyl)-1,3-benzodioxol-4-yl]piperidin-1-yl}methyl)-1-(2-methoxyethyl)-1H-benzimidazole-6-carboxylic acid] | –
17 | 49 | 1.4 | – | 110 | 82 | – | – | – | COCCn1c(CN2CCC(c3cccc4c3OC(C)(c3ccc(Cl)cc3F)O4)CC2)nc2ccc(C(=O)O)cc21 (stereo not drawn) [Example 24, 2-({4-[2-(4-chloro-2-fluorophenyl)-2-methyl-1,3-benzodioxol-4-yl]piperidin-1-yl}methyl)-1-(2-methoxyethyl)-1H-benzimidazole-6-carboxylic acid] | –
18 | 1000 | 61 | – | 100 | 98 | – | – | – | COCCn1c(CN2CCC(c3cccc4c3OC(c3ccc(C#N)cc3F)O4)CC2)nc2ccc(C(=O)O)cc21 (stereo not drawn) [Example 27, 2-({4-[2-(4-cyano-2-fluorophenyl)-1,3-benzodioxol-4-yl]piperidin-1-yl}methyl)-1-(2-methoxyethyl)-1H-benzimidazole-6-carboxylic acid] | –
19 | 150 | 5.3 | – | 93 | 87 | – | – | – | CCc1ccc(C2(C)Oc3cccc(C4CCN(Cc5nc6ccc(C(=O)O)cc6n5CCOC)CC4)c3O2)cc1 (stereo not drawn) [Example 29, 2-({4-[2-(4-ethylphenyl)-2-methyl-1,3-benzodioxol-4-yl]piperidin-1-yl}methyl)-1-(2-methoxyethyl)-1H-benzimidazole-6-carboxylic acid] | –
20 | 1100 | 45 | – | 77 | 86 | – | – | – | COCCn1c(CN2CCC(c3cccc4c3OC(C)(c3ccc(OC)c(F)c3)O4)CC2)nc2ccc(C(=O)O)cc21 (stereo not drawn) [Example 30, 2-({4-[2-(3-fluoro-4-methoxyphenyl)-2-methyl-1,3-benzodioxol-4-yl]piperidin-1-yl}methyl)-1-(2-methoxyethyl)-1H-benzimidazole-6-carboxylic acid] | –
21 | 1900 | 190 | – | 65 | 88 | – | – | – | COCCn1c(CN2CCC(c3cccc4c3OC(C)(c3cccc(F)c3)O4)CC2)nc2ccc(C(=O)O)cc21 (stereo not drawn) [Example 31, 2-({4-[2-(3-fluorophenyl)-2-methyl-1,3-benzodioxol-4-yl]piperidin-1-yl}methyl)-1-(2-methoxyethyl)-1H-benzimidazole-6-carboxylic acid] | –
22 | 450 | 18 | – | 87 | 86 | – | – | – | COCCn1c(CN2CCC(c3cccc4c3OC(C)(c3ccc(OC)cc3)O4)CC2)nc2ccc(C(=O)O)cc21 (stereo not drawn) [Example 32, 1-(2-methoxyethyl)-2-({4-[2-(4-methoxyphenyl)-2-methyl-1,3-benzodioxol-4-yl]piperidin-1-yl}methyl)-1H-benzimidazole-6-carboxylic acid] | –
